Measurements as given in PubChem BioAssay (NCI).
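Grown in 96-well plates, cells were treated for 48 hours with each compound at five concentrations. Insufficient inhibition: endpoint recorded as highest concentration tested. GI50 is the concentration that inhibits growth by half. The concentration for full growth arrest is given as TGI.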

How the values were obtained:
Assay in all cases: growth of human tumour cells (NCI), 48 h
SK-MEL-2 melanoma = system: SK-MEL-2 melanoma
LOX IMVI melanoma = system: LOX IMVI melanoma
PC-3 prostate = system: PC-3 prostate
MOLT-4 leukemia = system: MOLT-4 leukemia
NCI-H460 lung = system: NCI-H460 lung
UACC-257 melanoma = system: UACC-257 melanoma
K-562 leukemia = system: K-562 leukemia
HOP-62 NSCLC = system: HOP-62 NSCLC
DU-145 prostate = system: DU-145 prostate
HCC-2998 colon = system: HCC-2998 colon

| Structure (SMILES) | GI50 (SK-MEL-2 melanoma) [µM] | TGI (SK-MEL-2 melanoma) [µM] | GI50 (LOX IMVI melanoma) [µM] | TGI (LOX IMVI melanoma) [µM] | GI50 (PC-3 prostate) [µM] | TGI (PC-3 prostate) [µM] | GI50 (MOLT-4 leukemia) [µM] | TGI (MOLT-4 leukemia) [µM] | GI50 (NCI-H460 lung) [µM] | TGI (NCI-H460 lung) [µM] | GI50 (UACC-257 melanoma) [µM] | TGI (UACC-257 melanoma) [µM] | GI50 (K-562 leukemia) [µM] | TGI (K-562 leukemia) [µM] | GI50 (HOP-62 NSCLC) [µM] | TGI (HOP-62 NSCLC) [µM] | GI50 (DU-145 prostate) [µM] | TGI (DU-145 prostate) [µM] | GI50 (HCC-2998 colon) [µM] | TGI (HCC-2998 colon) [µM] |
| --- | --- | --- | --- | --- | --- | --- | --- | --- | --- | --- | --- | --- | --- | --- | --- | --- | --- | --- | --- | --- |
| CC[C@H](Nc1nc(NCc2cnc(C)cc2C)c2ncn(C(C)C)c2n1)[C@@H](C)O | 0.549 | 3.01 | 0.252 | > 67.5 | 0.314 | > 100 | 0.339 | > 100 | 0.327 | 15.7 | 0.41 | > 100 | 0.48 | > 100 | 0.356 | > 59.7 | 0.387 | > 100 | 0.291 | 2 |
| CC1=C2C[C@H]3[C@@H](CC[C@@H]4CC(NS(C)(=O)=O)CC[C@@]43C)[C@@H]2CC[C@@]2(C1)O[C@@H]1C[C@H](C)CN[C@H]1[C@H]2C (stereo not given in full) | 6.76 | 15.4 | 5.48 | 16.3 | 4.39 | 17.3 | 5.5 | 23.2 | 4.81 | 16 | 6.28 | 18.9 | 4.25 | 31.6 | 11.3 | 24.8 | 14.4 | 28 | 14.1 | 28.2 |
| Cc1ccc(-n2c3c(c4c(CN(C)C)c(O)ccc42)CCc2ccccc2C3=O)cc1 | 19.9 | 44.5 | 15.8 | 29.5 | 17.5 | 38.4 | 20.3 | 39.3 | 18.3 | 41.9 | 17.7 | 34 | 10.2 | 25.9 | 17.8 | 40.9 | 37.3 | > 100 | 12.2 | 24.9 |
| O=c1c2ccccc2n(C[C@H]2CO2)c2ccccc12 | 1.96 | 3.83 | 1.51 | 3.15 | 2.04 | 8.34 | 0.29 | 2.35 | 1.7 | 4.43 | 2.1 | 4.46 | 2.2 | > 100 | 2.13 | 5.84 | 1.35 | 5.85 | 1.51 | 3.44 |
| C/C(=N/Nc1nc2ccccc2n1C)c1ccccn1 | 0.706 | 22.3 | 0.0514 | 11.4 | 0.0369 | 36 | 0.0226 | > 39.1 | 0.133 | 1.95 | 0.0377 | 0.489 | 0.0173 | > 100 | 0.185 | 4.49 | 0.141 | 17.7 | 0.493 | 15.6 |
| O=C(Nc1cccc(Cl)c1)c1ccc(NC2=C(Cl)C(=O)N(Cc3ccccc3)C2=O)cc1 | 18.9 | > 100 | 4.24 | 9.27 | 9.48 | 24.1 | 1.67 | 4.89 | 9.11 | > 50.9 | 21.3 | 49.7 | 2.58 | 8.69 | 18.2 | 33 | 8.37 | 19.2 | 1.68 | 3.83 |
| O=C1CCCCCCCC/C=C\CC(c2ccco2)O1 (stereo not given) | 21.6 | 58.4 | 32.3 | 51.6 | 36.3 | > 100 | 20.8 | 65.7 | 76.5 | > 100 | 24.2 | 72.5 | 23.5 | 73.8 | 15.6 | 62.3 | 44.8 | > 100 | > 100 | > 100 |
| Cc1cc(S(N)(=O)=O)c(S/C(CC(C)C)=N\Nc2ccc([N+](=O)[O-])cc2)cc1Cl | 8.22 | 34.6 | 5.81 | 29.2 | 3.16 | 11.9 | 4.57 | > 100 | 4.09 | 17.8 | 16.4 | 33.8 | 5.82 | 97 | 13.5 | 26.4 | 14.4 | 28 | 2.46 | 6.27 |
| O=C(c1ccco1)c1nc2cc(Cl)ccc2[n+]([O-])c1C(F)(F)F | > 100 | > 100 | 48.4 | > 100 | 13.7 | 41.4 | 27.1 | 66.6 | 57 | > 100 | 4.07 | 32.9 | 22.2 | 54.3 | 76.7 | > 100 | 76.5 | > 100 | 18.5 | 34.9 |
| COc1ccc(/C=C\c2cc(OC)c(OC)c(OC)c2)cc1OC(=O)c1cccc(Cn2cc(CCOC(=O)[C@H](N)Cc3cn(C)c4ccccc34)nn2)c1 | 15.4 | > 83.5 | < 0.01 | 14.2 | < 0.01 | > 100 | < 0.01 | 18.8 | < 0.01 | > 42.8 | 11.4 | 47.6 | < 0.01 | > 22.4 | < 0.01 | > 100 | < 0.01 | > 100 | 0.0198 | 1.7 |
| O=C1/C(=C/c2ccccc2)CN(C(=O)c2cccnc2)C/C1=C\c1ccccc1 | 6.72 | 20.6 | 0.21 | 0.483 | 1.44 | 4.81 | 0.752 | > 100 | 2.58 | 11 | 3.2 | 11 | 0.347 | > 100 | 3.02 | 10.4 | 2.04 | 6.13 | 0.939 | 2.27 |
| COc1cc(-c2nn(-c3cccc(NC(=O)Nc4cc(C(F)(F)F)cc(C(F)(F)F)c4)c3)cc2-c2ccncc2)ccc1Cl | 1.01 | 2.04 | 0.783 | 1.52 | 0.176 | 1.18 | 1.08 | 4.48 | 0.366 | 1.64 | 0.755 | 2.21 | 0.279 | 3.03 | 0.749 | 1.55 | 0.987 | 5.59 | 1.09 | 2.65 |
| Cc1c(-c2c(-c3ccc(F)o3)sc3ncnc(O[C@H](Cc4ccccc4OCc4ccnn4CC(F)(F)F)C(=O)O)c23)ccc(OCCN2CCN(C)CC2)c1Cl | 0.03 | 0.097 | 3.03 | 6.8 | 3.16 | 7.28 | 0.108 | 4.71 | 4.17 | 10 | 5.24 | 12.9 | 3.71 | 14.5 | 5.31 | 14.3 | 2.33 | 5.36 | 3.48 | 7.57 |
| N#Cc1nc2c(S(=O)(=O)c3ccccc3)c(N)n(Cc3cccnc3)c2nc1C#N | > 100 | > 100 | 25.8 | > 100 | > 100 | > 100 | > 100 | > 100 | > 100 | > 100 | > 100 | > 100 | > 100 | > 100 | 17.4 | 41.4 | 24.7 | > 100 | > 100 | > 100 |
| O=C(CN1CCN(CCCOc2c(-c3ccccc3)oc3ccccc3c2=O)CC1)Nc1ccc(Cl)cc1C(=O)c1ccccc1Cl | 12.5 | 31 | 3.87 | 14.4 | 3.18 | 21.4 | 3.98 | 66.7 | 3.64 | > 100 | 4.59 | 20.5 | 4.18 | > 100 | 10.4 | 28.1 | 19.8 | > 100 | 2.26 | 4.23 |
| COc1cc2cc(Oc3ccc(NC(=O)Nc4cccc(C(F)(F)F)c4)cc3)c(C)nc2cc1OC | 1.28 | 2.87 | 1.84 | 6.61 | 1.39 | 5.49 | 1.55 | 6.87 | 1.6 | 6.02 | 1.09 | 3.66 | 1.73 | 14 | 2.33 | 8.44 | 2.78 | 15.8 | 2.59 | 50 |
| Cn1c(/C=C(\C#N)c2ccccc2)nc2c(N3CCOCC3)nc(Cl)nc21 | 1.62 | 3.18 | 0.324 | 1.25 | 0.849 | 2.99 | 0.669 | 3.12 | 1.77 | 3.72 | 1.43 | 3.03 | 0.348 | 3.46 | 1.58 | 3.51 | 1.28 | 2.56 | 1.82 | 3.33 |
